Each structure is given as a SMILES string.

For orientation: melting point means the temperature, or range, at which the solid turns liquid.

With `COCCN1CCc2cc(Nc3ncc(Cl)c(Nc4ccc(C(N)=O)cc4OC)n3)c(OC)cc2CC1`, the melting point was 100 to 112 °C.

On to `O=C(O)C(=O)c1ccc(OCCOC2CCCCCCC2)cc1`, for which the melting point was in the range of 64 to 65 °C.

For `COc1ccc2c(c1OC)C[C@@H](C1CCN(CCc3ccccc3)CC1)O[C@H]2CN` (relative stereo), the melting point fell in the range of 100 to 102 °C.

For the compound `CCCCCCCCC=CCCCCCCCC(=O)NCCCSc1ccncc1`, the melting point fell in the range of 50 to 50.5 °C.

For the compound `COCn1c(C(=O)O)cc2cccc(NS(=O)(=O)c3ccccn3)c21`, the melting point is 199 to 200 °C.

Compound `Nc1ncccc1C(=O)NCC1CCN(CC2COc3ccccc3O2)CC1` (configuration not stated) gave a melting point of 104 to 106 °C.

In turn, `CCCCCCCCCCCCS(=O)(=O)c1c(O)cc(C)oc1=O` gave a melting point of 78 to 79 °C.

In turn, `CCCC(=O)Nc1ccc2c(c1)CCC(CN1CCC(O)(c3ccccc3)CC1)C2=O` (configuration not stated) yielded a melting point of 196 to 198 °C.

As for `CC1(C)C(CC(Cl)(Cl)Cl)C1C(=O)O` (configuration not stated), the melting point was in the range of 85 to 89 °C.

In turn, `C=CCC(C(=O)NC)c1ccccc1` (configuration not stated) had a melting point of 97 to 99 °C.

For the compound `CC(=O)Oc1n[nH]c(=O)c2nc3cc(Cl)ccc3c(O)c12`, the melting point was above 300 °C.

As to `Cc1ccc(C(=O)C=Cc2ccc[nH]2)cc1`, the melting point lay in the range of 158 to 160 °C.

`COc1cc(N)c(Cl)cc1C(=O)N[C@H]1CCN(CCNc2ncccc2C#N)C[C@H]1OC` (relative stereo) yielded a melting point of 134 °C.

As to `O=C1CCC(N2Cc3c(O)cccc3C2=O)C(=O)N1` (configuration not stated), the melting point came out at 296 °C.

Consider `CCCCCCCCCCCCCCCC(=O)C1(O)OC(COCc2ccccc2)C(OCc2ccccc2)C(OCc2ccccc2)C1OCc1ccccc1` (configuration not stated), for which the melting point fell in the range of 52 to 53 °C.

`CC12CC(F)C3C(CCC4=CC(=O)CCC43C)C1CCC2=O` (configuration not stated) registered a melting point of 162 to 164 °C.

`OCCSC(=S)Nc1ccc(Cl)cn1` registered a melting point of 108 °C.

In turn, `COC(=O)CCC(=O)Nc1cccc(COc2ccc(C(C)=O)c(OC)c2)c1` displayed a melting point of 124 °C.

As for `CC(C)[C@@H]1COC(=O)N1C(=O)CCc1ccccc1`, the melting point amounted to 62 °C.

Compound `CC(=O)OC(c1ccc(Cl)c2nc3n(c12)CCCN3c1ccc(Cl)cc1Cl)C1CC1` (configuration not stated) came in with a melting point of 208 to 210 °C.

The compound `COCC1OC(n2cnc3c(NCc4cccc(I)c4)ncnc32)C(O)C1O` (configuration not stated) had a melting point of 155 to 157 °C.

For the compound `CC[C@H](C)Nc1cc(C(=O)OC)cc(NS(C)(=O)=O)n1`, the melting point lay within 119 to 123 °C.

`CCc1noc(-c2ncc3[nH]c4cccc(Oc5ccc(Cl)cc5)c4c3c2COC)n1` came in with a melting point of 170 °C.

Take `CC(C)c1ccc(-c2ncc(-c3cccc(C(=O)O)c3)o2)cc1`: the melting point lay within 193 to 195 °C.

For the compound `O=C(C1CC1)N1CCC(C2CCc3ccc(O)cc32)CC1` (configuration not stated), the melting point lay in the range of 75 to 82 °C.

Take `CC(C)(C(=O)c1ccc(OCC(=O)O)cc1)N1CCN(c2ccncc2)CC1`: the melting point fell in the range of 278 to 279 °C.

Compound `Cc1ccc(N2C(=O)C(O)=C(C(=O)c3ccc(C(C)C)cc3)C2c2ccc(OC(C)(C)C)cc2)nn1` (configuration not stated) registered a melting point of 276 to 277 °C.

As to `N#CC1(c2ccccc2)CCN(C(=O)N2CCCc3ccccc32)CC1`, the melting point lay within 53 to 59 °C.

Compound `O=C(O)c1ccc2c(c1)Sc1ccccc1NC2=O` came in with a melting point of 362 to 364 °C.

Compound `CCN1CCc2c(Br)ccc([N+](=O)[O-])c2C1` gave a melting point of 52 to 53 °C.

The compound `CCCCCCOC(=O)OC(C)OC1=C(C(=O)Nc2ccccn2)N(C)S(=O)(=O)c2ccccc21` (configuration not stated) displayed a melting point of 86 to 87 °C.

In the case of `Cc1cc(C=O)ccc1-c1ccc(O)cc1`, the melting point was 94 to 96 °C.

`O=C(O)CCOc1cccc2c1CCc1sc(SC(c3ccccc3)c3ccccc3)nc1-2` gave a melting point of 156 to 158 °C.

`COc1ccc(C(=O)c2c[nH]c(=O)[nH]2)cc1OC` had a melting point of 257 to 259 °C.

`COC(=O)CCC(=O)Nc1cccc(Oc2nc3ccccc3s2)c1` gave a melting point of 78 to 82 °C.

`COc1cccc2c1C(OC)(OC)C=CC2=O` displayed a melting point of 62 to 63 °C.

In turn, `Cc1cc(N2CCN(Cc3ccccc3)C2=O)sc1C(=O)NCc1cccnc1` gave a melting point of 130 to 131 °C.

`CCC1C(C)=NN=C(c2ccc(O)c(OC)c2)c2cc(OC)c(OC)cc21` (configuration not stated) registered a melting point of 130 to 132 °C.

`Cc1ccc2c(c1)C(CCO)N(c1cccc([N+](=O)[O-])c1)N(C)C2=O` (configuration not stated) yielded a melting point of 169 to 170 °C.

The compound `O=C(O)CCc1cc2cc(F)c(Cl)cc2n1S(=O)(=O)c1ccccc1` registered a melting point of 199 to 204 °C.

Turning to `Cc1cc(Oc2ccc(-c3ccn(CC4CC4)c(=O)c3C#N)cc2F)cc(C)n1`, the melting point is 201 °C.

`O=C1c2ccccc2C(=O)N1CC(=O)N1c2ccccc2N(Cc2ccccc2)C(=O)CC1c1ccccc1` (configuration not stated) returned a melting point of 127 to 128 °C.

For the compound `CCOC(=O)CCCCCN(C)S(=O)(=O)C=C(C(C)=O)c1cccc([N+](=O)[O-])c1`, the melting point lay within 60 to 63 °C.

Regarding `O=C1c2ccccc2C(=O)N1CCCn1ccnc1-c1ccccc1`, the melting point was 109 to 110 °C.

`N#Cc1cccc2c3c([nH]c12)CCNC3`: the melting point was 230 to 235 °C.

As to `c1ccc2c(N3CCCCC3)nc(N3CCCCC3)nc2c1`, the melting point was in the range of 128 to 131 °C.

Turning to `COc1ccc([N+](=O)[O-])c(NC(=O)OC(C)(C)C)c1`, the melting point lay within 112 to 114 °C.

As to `CC1(C)OC(C(F)(F)F)Nc2ccc(-c3cccc(Cl)c3)cc21` (configuration not stated), the melting point fell in the range of 108 to 109 °C.

In the case of `CCOC(=O)n1ccc2cc(N)ccc21`, the melting point is 113 to 114 °C.

In turn, `CCC(CC)Nc1cc(C)nc(Nc2c(C)cc(C)cc2C)c1[N+](=O)[O-]` yielded a melting point of 104 to 107 °C.

The compound `OC(Cn1cncn1)(c1ccc(Cl)cc1)C1(n2cnc(Cl)n2)CC1` (configuration not stated) returned a melting point of 156 °C.

For the compound `CC1=C(Br)C=CC(Cl)(C=NO)C1` (configuration not stated), the melting point lay in the range of 77 to 78 °C.

`CC(C)(C)OC(=O)N1CC=C(c2ccc3[nH]c(=O)[nH]c3c2)CC1` displayed a melting point of 244 to 245 °C.

With `CC(C)C(NC(=O)[C@@H]1CCCN1C(=O)[C@@H](NC(=O)c1ccc(C(=O)N2CCOCC2)nc1)C(C)C)C(=O)C(F)(F)C(F)(F)F` (some centres not stated), the melting point fell in the range of 111 to 112 °C.

As for `Nc1ncc(-c2ccc(F)c(F)c2)nc1C(=O)Nc1cccnc1`, the melting point was 232 to 234 °C.

For the compound `COC(=O)C=C[C@@H](Cc1cn(CC=Cc2ccccc2)c2ccccc12)NC(=O)OC(C)(C)C`, the melting point lay within 119 to 121 °C.

Compound `O=C(O)COc1ccc(C(=O)c2ccc(Cl)cc2)c(Cl)c1Cl` had a melting point of 196 to 198 °C.

In turn, `CC(C)(N)c1cc(Cl)c(Cl)c(Cl)c1` yielded a melting point of 56 to 59 °C.

`O=C(c1ccc(F)cc1)C1CCN(CCN(C(=O)c2cccc([N+](=O)[O-])c2)c2ccc(F)cc2)CC1` gave a melting point of 97 to 113 °C.

In turn, `O=C1N(C(c2ccccc2)c2ccccc2)c2ccccc2C12COc1ccc(-c3cccnc3)cc12` (configuration not stated) showed a melting point of 204 to 207 °C.

Compound `O=C1c2ccccc2C(=O)N1CC(=O)N1c2ccccc2N(Cc2ccccc2)C[C@@H]2CCC[C@H]21` (relative stereo) displayed a melting point of 232 to 234 °C.

Consider `CCN1CCCC1CNC(=O)c1cc([N+](=O)[O-])c(Cl)cc1OC` (configuration not stated), for which the melting point fell in the range of 107 to 108 °C.

Source of the values: a melting point compilation (Tetko et al.; mined from patent text by program, amines drawn as free bases though some values may be those of a salt).
